Reference: patent US12077503B2, “Substituted cyclic amides and their use as herbicides” (FMC CORPORATION, priority 2015, dated 2024)
Where two headings read alike, the source gives them in different places.

Legend:
Experiment in all cases: Test B flooded paddy test
Format in all cases: in vivo
[1] = test system: barnyardgrass (Echinochloa crus-galli); conditions: Echinochloa crus-galli, 250 g ai/ha, Flood, read-out: Barnyardgrass plant response rating
Outline: (§1)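 Response scored visually against untreated controls, 0 = no effect and 100 = complete control, 13–15 d after treatment in the greenhouse. Compounds added to paddy water held 3 cm above soil surface. Treatment given at 2-leaf stage.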

rice (Oryra sativa) = conditions: Oryza sativa, 250 g ai/ha, Flood, read-out: Rice plant response rating
Outline: as §1

[2] = test system: sedge, umbrella (small-flower umbrella sedge, Cyperus difformis); conditions: Cyperus difformis, 250 g ai/ha, Flood, read-out: Sedge, Umbrella plant response rating
Outline: as §1

[3] = test system: ducksalad (Heteranthera limosa); conditions: Heteranthera limosa, 250 g ai/ha, Flood, read-out: Ducksalad plant response rating
Outline: as §1

[4] = 0 to 100 scale where 0 is no effect and 100 is complete control
[5] = scale of 0 to 100 where 0 is no effect and 100 is complete control

| SMILES | pest or weed control at 250 g/ha [1, 4] [%] | pest or weed control at 250 g/ha (rice (Oryra sativa); [4]) [%] | pest or weed control at 250 g/ha [2, 4] [%] | pest or weed control at 250 g/ha [3, 4] [%] | pest or weed control at 250 g/ha [1, 5] [%] | pest or weed control at 250 g/ha (rice (Oryra sativa); [5]) [%] | pest or weed control at 250 g/ha [2, 5] [%] | pest or weed control at 250 g/ha [3, 5] [%] |
| --- | --- | --- | --- | --- | --- | --- | --- | --- |
| O=C(Nc1ccccc1F)[C@H]1C(=S)NC[C@@H]1c1ccc(C(F)(F)F)cc1 (racemic) [Compound 1047] | 0 | 0 | 0 | 0 |  |  |  |  |
| Cc1ccc([C@H]2CNC(=O)[C@]2(Br)C(=O)Nc2cccc(F)c2F)cc1F (racemic) [Compound 1073] | 55 | 15 | 0 | 100 |  |  |  |  |
| C/C=C/N1C[C@@H](c2cccc(C(F)(F)F)c2)[C@H](C(=O)Nc2ccccc2F)C1=O (racemic) [Compound 1094] | 45 | 0 | 0 | 0 |  |  |  |  |
| CN1C[C@H](c2ccc(C(F)(F)F)cc2)[C@@](F)(C(=O)Nc2cccc(F)c2F)C1=O (racemic) [Compound 1151] | 0 | 0 | 0 | 0 |  |  |  |  |
| CC(C)c1cccc([C@H]2CN(C)C(=O)[C@@H]2C(=O)Nc2ccccc2S(C)(=O)=O)c1 [Compound 820] |  |  |  |  | 60 | 0 | 0 | 75 |
| CC(C)c1cccc([C@H]2CN(C)C(=O)[C@@H]2C(=O)Nc2ccc(F)cc2F)c1 [Compound 821] |  |  |  |  | 60 | 0 | 0 | 80 |
| CN1C[C@H](c2cccc(F)c2)[C@@H](C(=O)Nc2ccccc2F)C1=O [Compound 822] |  |  |  |  | 75 | 0 | 0 | 85 |
| Cc1c(F)cccc1NC(=O)[C@H]1C(=O)NC[C@@H]1c1cccc(C(F)(F)F)c1 [Compound 826] |  |  |  |  | 65 | 0 | 0 | 100 |
| Cc1cc(F)ccc1NC(=O)[C@H]1C(=O)NC[C@@H]1c1cccc(C(F)(F)F)c1 [Compound 828] |  |  |  |  | 0 | 0 | 0 | 30 |
| Cc1c(F)ccc([C@H]2CN(C)C(=O)[C@@H]2C(=O)Nc2ccccc2F)c1F [Compound 833] |  |  |  |  | 45 | 0 | 0 | 85 |
| Cc1c(F)ccc([C@H]2CN(C)C(=O)[C@@H]2C(=O)Nc2ccc(F)c(F)c2F)c1F [Compound 836] |  |  |  |  | 65 | 0 | 0 | 95 |
| O=C1NC[C@H](c2cc(F)c(C(F)(F)F)c(F)c2)[C@H]1C(=O)Nc1ccc(F)cc1F [Compound 840] |  |  |  |  | 0 | 0 | 0 | 80 |
| Cc1c(F)ccc([C@H]2CN(C)C(=O)[C@@H]2C(=O)Nc2ccccc2C(F)(F)F)c1F [Compound 841] |  |  |  |  | 40 | 0 | 0 | 80 |
| Cc1c(F)ccc([C@H]2CN(C)C(=O)[C@@H]2C(=O)Nc2ccccc2S(C)(=O)=O)c1F [Compound 842] |  |  |  |  | 65 | 0 | 0 | 100 |
| CC(C)(C)c1ccc([C@H]2CNC(=O)[C@@H]2C(=O)Nc2cccc(F)c2F)cc1 [Compound 847] |  |  |  |  | 0 | 0 | 0 | 90 |
| COc1cc([C@H]2CN(C)C(=O)[C@@H]2C(=O)Nc2ccccc2SC)cc(C(F)(F)F)c1 [Compound 857] |  |  |  |  | 60 | 0 | 80 | 80 |
| COc1cc(C(F)(F)F)ccc1[C@H]1CN(C)C(=O)[C@@H]1C(=O)Nc1ccccc1F [Compound 858] |  |  |  |  | 45 | 0 | 0 | 100 |
| CSc1ccccc1NC(=O)[C@H]1C(=O)N(C)C[C@@H]1c1cccc(OC(F)(F)C(F)F)c1 [Compound 862] |  |  |  |  | 0 | 0 | 0 | 90 |

| SMILES | pest or weed control at 250 g/ha [1, 4] [%] | pest or weed control at 250 g/ha (rice (Oryra sativa); [4]) [%] | pest or weed control at 250 g/ha [2, 4] [%] | pest or weed control at 250 g/ha [3, 4] [%] | pest or weed control at 250 g/ha [1, 5] [%] | pest or weed control at 250 g/ha (rice (Oryra sativa); [5]) [%] | pest or weed control at 250 g/ha [2, 5] [%] | pest or weed control at 250 g/ha [3, 5] [%] |
| --- | --- | --- | --- | --- | --- | --- | --- | --- |
| Cc1c(F)cccc1NC(=O)[C@H]1C(=O)N(C)C[C@@H]1c1cc(F)c(F)c(F)c1 [Compound 867] |  |  |  |  | 65 | 30 | 30 | 100 |
| CN1C[C@H](c2cc(F)cc(F)c2)[C@@H](C(=O)Nc2ncc(C(F)(F)F)cc2F)C1=O [Compound 868] |  |  |  |  | 0 | 0 | 0 | 0 |
| CN1C[C@H](c2cc(F)cc(F)c2)[C@@H](C(=O)Nc2ccccc2[S@@+](C)[O-])C1=O [Compound 872] |  |  |  |  | 0 | 0 | 40 | 85 |
| CN1C[C@H](c2cccc(COC(F)F)c2)[C@@H](C(=O)Nc2ccccc2S(C)(=O)=O)C1=O [Compound 877] |  |  |  |  | 55 | 0 | 0 | 100 |
| COc1c(F)ccc([C@H]2CNC(=O)[C@@H]2C(=O)Nc2ccccc2F)c1Cl [Compound 881] |  |  |  |  | 45 | 15 | 0 | 100 |
| COc1c(F)ccc([C@H]2CNC(=O)[C@@H]2C(=O)Nc2cccc(F)c2F)c1Cl [Compound 882] |  |  |  |  | 45 | 0 | 0 | 100 |
| O=C1NC[C@H](c2ccc3c(c2)CCCO3)[C@H]1C(=O)Nc1ccccc1F [Compound 885] |  |  |  |  | 0 | 0 | 0 | 60 |
| COc1c(F)ccc([C@H]2CN(C)C(=O)[C@@H]2C(=O)Nc2cccc(F)c2F)c1Cl [Compound 893] |  |  |  |  | 90 | 10 | 0 | 90 |
| COc1c(F)ccc([C@H]2CN(C)C(=O)[C@@H]2C(=O)Nc2ccc(F)cc2F)c1Cl [Compound 894] |  |  |  |  | 70 | 0 | 0 | 100 |
| CN1C[C@H](c2cc(F)c(C(F)(F)F)c(F)c2)[C@@H](C(=O)Nc2cccc(F)c2F)C1=O [Compound 898] |  |  |  |  | 55 | 0 | 0 | 70 |
| O=C1NC[C@H](c2ccc3c(c2)CCO3)[C@H]1C(=O)Nc1ccc(F)cc1F [Compound 902] |  |  |  |  | 0 | 0 | 0 | 75 |
| CCOc1ccc([C@H]2CN(C)C(=O)[C@@H]2C(=O)Nc2ccccc2F)cc1 [Compound 903] |  |  |  |  | 0 | 0 | 0 | 0 |
| CCOc1ccc([C@H]2CNC(=O)[C@@H]2C(=O)Nc2ccccc2F)cc1 [Compound 906] |  |  |  |  | 0 | 0 | 0 | 0 |
| CCOc1ccc([C@H]2CNC(=O)[C@@H]2C(=O)Nc2cccc(F)c2F)cc1 [Compound 907] |  |  |  |  | 0 | 0 | 0 | 50 |
| Cc1cc(C)cc([C@H]2CNC(=O)[C@@H]2C(=O)Nc2ccccc2C(F)(F)F)c1 [Compound 909] |  |  |  |  | 40 | 0 | 0 | 70 |
| Cc1cc(C)cc([C@H]2CN(C)C(=O)[C@@H]2C(=O)Nc2ccccc2F)c1 [Compound 910] |  |  |  |  | 70 | 0 | 0 | 85 |
| Cc1cc(C)cc([C@H]2CN(C)C(=O)[C@@H]2C(=O)Nc2ccccc2C(F)(F)F)c1 [Compound 912] |  |  |  |  | 50 | 0 | 0 | 50 |
